Measured values from US20050020662A1, “Inhibition of PKC to treat permability failure” (Joslin Diabetes Center, Inc., a Massachusetts corporation, priority 1999, published 2005).

Test system: PKC
Test: PKC activity of primary human mesothelial cells
Assay type: cell-based
Settings: human mesothelial cells exposed to vitamin E, low or high (150 mM) glucose, presence or absence of PMA (FIG. 2)
Procedure: The PKC activity was determined in the presence or absence or PMA, an activator of PKC. […] The mesothelial cells were exposed to low or high (150 mM) levels of glucose in the presence or absence of PMA, an activator of PKC, and the presence or absence of vitamin E, a PKC inhibitor. […] The PKC activity was determined in the presence or absence or PMA, an activator of PKC. […] These concentrations of glucose are standard for dialysis. […] It has been reported that activation of these pathways increases fibrosis. […] Therefore, inhibition of PKC can decrease fibrosis and reduce or prevent permeability failure of the peritoneal membrane.

vitamin E was tested, and the PKC activity was “decrease of PKC activity”.
